# Assay results: patent US20240279602A1, “METHOD FOR PRODUCING CEREBRAL CORTICAL CELL PREPARATION DERIVED FROM HUMAN PLURIPOTENT STEM CELLS” (Kyoto University, priority 2021, published 2024)
# Test system: cerebral organoids
# Assay: Flow cytometry of marker expression after DAPT treatment
# Type: cell-based, human
# Method: Cerebral organoids, cerebral cortical cell aggregates, and high-purity cerebral cortical cell aggregates were dispersed into single cells by using dispersing solution for neural cells (FUJIFILM Wako Pure Chemical Corporation), fixed by using Fixation Buffer (BD Biosciences) at 4° C. for 30 minutes, then treated with Perm/Wash buffer (BD Biosciences) at room temperature for 15 minutes, subjected to double or triple staining, and analyzed by using an Aria III. The analysis software used was FACSDiva software (BD). The primary antibodies and secondary antibodies used are shown in the following. • PerCP-Cy5.5 Mouse IgGI k isotype control: 550795 (BD Biosciences) Alexa 647 Mouse Anti-human Oct3/4 antigen: 560329 (BD Biosciences) • Tra-2-49/6E-FITC antibody: FCMAB133F (Merck) • Alexa647 mouse anti β-tubulin Class III: 560394 (BD) • PerCP-Cy5.5 Mouse anti-Human Sox1: 561549 (BD) • Alexa647 mouse anti-Human Pax6: 561165(BD) • Alexa488 mouse anti-Ki67: 562249 (BD) • Alexa488 rat anti-Ctip2 antibody: ab123449 (Abcam)
# Next, cell aggregates immediately after DAPT treatment (immediately after the completion of step (ii)) were analyzed for the proportions of constituent cells by means of flow cytometry. Cerebral organoids on Day 40 were subjected to DAPT treatment for 3 days, and expressions of marker genes were then analyzed by flow cytometry.
# Furthermore, iPS cells on Day 0 (undifferentiated iPS cells), organoids not subjected to DAPT treatment (Ctrl, without step (ii)), organoids subjected to DAPT treatment for 3 days (Day 40 to 43) (DAPT 3d, with step (ii)), and organoids subjected to DAPT treatment for 3 days and subsequently cultured again, as cell aggregates without being dispersed into cells, with a culture medium removed of DAPT for 4 days (DAPT 3d+Release 4d, with step (ii) and step (iv), and without step (iii)) were analyzed by flow cytometry; the results are shown in FIG. 15.
# Culture was performed in the same manner as the scheme in FIG. 3 as in Example 1 from −Day 7 to Day 35. A culture medium obtained by adding 5 μM SB431542 to StemFit culture medium without solution C(=bFGF-free culture medium) was used in step (1) in the case of “with preparation for neural differentiation” (with step (1)), and StemFit culture medium was used in the case of “without preparation for neural differentiation” (without step (1)). Thereafter, cerebral cortical cell aggregates were induced by the method described for step (ii) in Example 4, and evaluated by immunostaining. In addition, high-density cerebral cortical cell aggregates were induced by dispersing into single cells and then reaggregating the single cells by the method described for step (iii) and step (iv) in Example 4, and analyzed by flow cytometry.
# In the “single-cell DAPT method (DAPT treatment is performed in step (iv))” in FIG. 24(B), cerebral organoids were screened on day 38 after the initiation of induction of differentiation and dispersed into single cells by the method described for step (iii) in Example 4, and the cells were then suspended in a culture medium obtained by adding 10 ng/mL GDNF, 20 ng/mL BDNF, 200 μM ascorbic acid, 400 μM dibutyryl-cAMP, and 30 μM Y-27632 to the culture medium in step (2b) with addition of DAPT at a concentration of 0 μM, 0.1 μM, 1 μM, or 10 μM. Subsequently, the cells were regathered by the method described for step (iv) in Example 4 in the presence of DAPT, and cultured for 1 day, 2 days, or 3 days. Thereafter, the culture medium was switched to a culture medium obtained by adding 10 ng/mL GDNF, 20 ng/mL BDNF, 200 μM ascorbic acid, and 400 μM dibutyryl-cAMP to the culture medium in step (2b), and culture was continued until day 10 after the initiation of reaggregation. The cells on day 3, day 4, or day 10 after the initiation of reaggregation were analyzed by RT-qPCR, and the cells on day 10 were analyzed by flow cytometry; the results are shown in FIGS. 25 to 27. […]
# [1] = DAPT 3d+Release 4d: DAPT 3 days, then 4 days in medium removed of DAPT, without dispersion
# [2] = single-cell DAPT method (step (iv)), DAPT raised from 0 μM to 10 μM, 3 days treatment, 10 days culture
# [3] = week 5 organoids dispersed, 10 μM DAPT 3 days, then DAPT-free culture to 4 days vs 14 days
# [4] = without preparation for neural differentiation (without step (1)), DAPT treatment, dispersion and reaggregation
smiles,measurement,setting,value
"C[C@H](NC(=O)Cc1cc(F)cc(F)c1)C(=O)N[C@H](C(=O)OC(C)(C)C)c1ccccc1 [DAPT, N-[N-(3,5-difluorophenacetyl)-L-alanyl]-S-phenylglycine t-butyl ester]",proportion of Ki67/Sox1/Pax6-triple-positive cells,[1],0%
same,proportion of cells co-positive for Ctip2 and βIII-tubulin,[1],87.4%
same,proportion of Pax6-positive/Sox1-positive/Ki67-positive cells (proliferative cells),"cerebral organoids on Day 40, DAPT treatment for 3 days (DAPT 3d)",0.01%
same,proportion of Ctip2/βIII-tubulin-double-positive cells,"cerebral organoids on Day 40, DAPT treatment for 3 days (DAPT 3d), all viable cells",86.1%
same,proportion of Pax6/Ki67-double-positive neural stem cells (radial glia),"cerebral organoids on Day 40, DAPT treatment for 3 days, all viable cells",1.5%
same,cells with co-expression of Tra2-49/6E and Oct4 (undifferentiated iPS cell indicator),"organoids under any of the conditions (DAPT 3d, DAPT 3d+Release 4d)",not detected
same,proportion of Ctip2/βTubIII (Tuj1)-double-positive cells,[2],89.6%
same,proportion of Pax6-positive/Sox1-positive/Ki67-positive cells (proliferative cells),[2],0.8%
same,proportion of Ctip2/Tuj1-co-positive cells,[3],increase
same,proportion of Pax6/Ki67-double-positive cells and of Pax6/Ki67/Sox1-triple-positive cells,[3],decreased as the culture period after DAPT treatment was extended
same,proportion of Ctip2/βTubIII-double-positive cells,[4],85.9%
same,proportion of Pax6-positive/Sox1-positive/Ki67-positive cells (proliferative cells),[4],0%
same,proportion of Pax6/Ki67-double-positive neural stem cells (radial glia),[4],1.9%
